We go through one compound from publication PMC7503281, “The Structure of Clostridioides difficile SecA2 ATPase Exposes Regions Responsible for Differential Target Recognition of the SecA1 and SecA2-Dependent Systems” (International Journal of Molecular Sciences, 2020).

The test addresses T1, CDSecA2 (Clostridioides difficile, UniProt Q183M9).
T1 construct: gene secA2; pMCSG7, E. coli BL21(DE3); His tag cut by TEV, extra N-terminal SNAAA kept; monomer in crystal
The test is described as follows: X-ray crystallography (cocrystallization). To be noted: 2 mM ATP-γ-S, 4 mM MgCl2, pH 8.3, 20 °C; active site between NBD1 and NBD2, Walker A/B. Type of test: binding.

T1 sequence (Q183M9 whole entry): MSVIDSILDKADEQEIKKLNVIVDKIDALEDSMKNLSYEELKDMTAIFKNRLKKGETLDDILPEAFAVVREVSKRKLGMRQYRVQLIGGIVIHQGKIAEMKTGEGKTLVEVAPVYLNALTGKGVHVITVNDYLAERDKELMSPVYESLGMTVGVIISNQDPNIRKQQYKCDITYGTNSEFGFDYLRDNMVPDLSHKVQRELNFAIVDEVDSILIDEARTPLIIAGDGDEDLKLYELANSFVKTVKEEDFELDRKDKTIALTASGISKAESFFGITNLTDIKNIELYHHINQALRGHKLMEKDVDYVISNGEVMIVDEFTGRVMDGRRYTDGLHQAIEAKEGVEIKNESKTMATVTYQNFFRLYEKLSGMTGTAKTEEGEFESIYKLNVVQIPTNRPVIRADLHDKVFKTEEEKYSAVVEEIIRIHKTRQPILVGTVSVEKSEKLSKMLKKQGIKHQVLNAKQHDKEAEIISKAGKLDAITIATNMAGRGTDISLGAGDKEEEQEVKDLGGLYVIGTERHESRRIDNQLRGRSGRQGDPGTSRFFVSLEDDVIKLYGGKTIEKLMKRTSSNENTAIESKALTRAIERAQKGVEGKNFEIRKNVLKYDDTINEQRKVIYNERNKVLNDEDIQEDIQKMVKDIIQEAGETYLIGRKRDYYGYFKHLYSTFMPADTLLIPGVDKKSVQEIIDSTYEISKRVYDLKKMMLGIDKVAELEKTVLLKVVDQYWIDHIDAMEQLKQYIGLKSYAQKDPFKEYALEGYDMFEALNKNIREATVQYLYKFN

As for `Nc1ncnc2c1ncn2[C@@H]1O[C@H](COP(=O)(O)OP(=O)(O)OP(O)(O)=S)[C@@H](O)[C@H]1O` [ATP-γ-S, adenosine-5′-(γ-thio)-triphosphate], the “X-ray crystallography (cocrystallization)” value is “the electron density map for the ATP-γ-S ligand unambiguously positioned it in the active site”.
